The test system of one test is HUVEC. Nature of the test: HUVEC proliferation. In kind it is cell-based, human. Particulars: FGFR1β3c-driven; ATP content after 3 days. On the procedure: Confluent HUVEC cells are harvested and 5 10^4 cells in 100 μl RPMI 1640 (Invitrogen, 32404-014) with 0.5% FCS (Hyclone, SH30070.03), 2 mM glutamine, MEM non-essential amino-acid 1× (Gibco, 11140-035), MEM sodium pyruvate 1× (Gibco, 11360-039) are seeded per well in 96-well collagen 1-coated plates (Beckton Dickinson, 354650) overnight. Then, medium is removed and replace by 50 μl of medium that contains 2×FGF2 (R&D, 234-FSE-025), FGF4 (R&D, 235-F4-025) or FGF-19 (in house produced) and 50 μl of 2×SSR (200 or 600 nM). Cells were incubated in CO2 chamber at 37° C. for 3 days and proliferation is evaluated by quantifying ATP content with 100 μl of “Cell Titer Glo Luminescent cell viability” kit (Promega, G7571).

Another test relates to FGFR2. Briefly: FRS2, Erk1/2 and PLCγ phosphorylation in FGFR2-transfected HEK293 cells (western blot). The conditions noted are these: compound at 1 μM. Type of test: cell-based, human. On the procedure:
HEK293 cells were either transiently of stably transfected (using FuGENE 6, Roche) with hFGFR2IIIca or hFGFR2IIIca-Y328D cloned in pcDNA3 (Invitrogen). Stably transfected cells were grown in G418 (400 μg/ml) containing medium. Before stimulation, the cells were starved overnight in DMEM (0% serum), and pre-incubated with […] at the required concentration. The cells were subsequently stimulated with FGF2 (concentration between 0.5-10 ng/ml) for 5 min at 37° C. with or without SSR or SU5402 at 1 μM. After washing with ice-cold phosphate-buffered saline containing phosphatase inhibitors (Roche), cells were lysed in RIPA buffer (Tris 30 mM HCl pH 7.5, 150 mM NaCl, 1 mM EDTA, 1% triton-X, 0.5% w/v deoxycholate, containing phophatase and protease inhibitors as described by the manufacturer (Roche)). Cell lysates were centrifuged at 12,000 g for 10 min, and the supernatants were collected. Proteins were separated on Novex polyacrylamide gels (Invitrogen, Carlsbad, Calif.) and subsequently transferred onto Hybond ECL nitrocellulose membranes (Amersham Pharmacia). Following incubation with 5% non-fat milk powder in PBS, the membranes were incubated overnight at 4° C. with the following antibodies: phospho-ERK1/2 (CST:9101), phospho-FRS2 (CST:3861), phospho-PLCγ (CST:2821) and FGFR2 (F0300, Sigma).
In order to evaluate SSR effect on FGFR-controlled phosphor-signalling, HEK293 cells have been transfected with FGFR2 and the two main pathways following FGFR autophosphorylation, PLCγ and FRS2, have been studied by western blot in comparison with a published FGFR tyrosine kinase inhibitor SU5402 described to inhibit FGFR-dependent FRS2 and PLCγ cascades (Zhen et al., Oncogene 2007). In such cells, FGF induces FRS2, Erk1/2 and PLCγ phosphorylation. […] More generally, these differences in phosphorylation can be used as reporter to evaluate allosteric modulators.

For the next test, the system named is PANC02 cells. Nature of the test: PANC02 migration. Type of test: cell-based. The conditions noted are these: 100 nM SSR; 100 ng/ml FGF7 with or without VEGF; FGFR2-IIIb. On the procedure:
Cell proliferation was analysed on exponentially growing cells that were starved for 16 hours in 100 μl RPMI 1640 (Invitrogen, 32404-014) with 0.2% FBS (Hyclone, SH30070.03), 2 mM glutamine, MEM non-essential amino-acid 1× (Gibco, 11140-035), MEM sodium pyruvate 1× (Gibco, 11360-039) and seeded at 4,000 cells/well in 96-well microplates. After exposure to mitogens and/or SSR for 72 hours, cell proliferation was assessed with the use of the CellTiter 96 AQueous One Solution Cell Proliferation Assay (Promega, Madison, Wis., USA) according to manufacturer's instructions. Cell migration was assessed by a modified Boyden chamber assay, by using 24-well inserts containing 8 μm pore size transwell permeable supports with a polycarbonate membrane (Costar, Corning Inc.). Exponentially growing cells were starved in 0.2% FBS containing medium for 16 hours and resuspended at 5×10^5 cells/ml in the same low serum medium. 100 μl of the cell suspension were seeded in the upper chamber, while chemoattractants and/or SSR were placed in the lower chamber. 10% FBS containing medium was used a positive control. After 6 hours incubation at 37° C., cells on the upper side of the membrane were scraped using a cotton swab, while migrated cells on the lower surface were fixed with 4% formaldehyde and nuclei stained with DAPI for quantification.

The target in a further test is T1, FGFR1^∂3 (Homo sapiens, UniProt P11362).
T1 construct: a fragment containing only domain D3 (FGFR1^∂3)
T1 sequence (P11362 255-357 limits assumed): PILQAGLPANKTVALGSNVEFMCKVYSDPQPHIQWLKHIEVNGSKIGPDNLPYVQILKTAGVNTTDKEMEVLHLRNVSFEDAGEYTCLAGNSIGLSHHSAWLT
Briefly: 1D-NMR, FGFR1 domain D3 fragment. In kind it is binding. On the procedure: All STD- and 1D-NMR experiments were carried out on a BRUKER three-channel DRX600 and on a BRUKER four-channel DRX800 spectrometer at the standard temperature of 298 K and were referenced to the internal standard 3-Trimethyl-2,2,3,3-tetradeuteropropionate-sodium salt (TSP). Typically, NMR samples contained 0.5 ml of protein ([…]) in 25 mM Tris/HCl, pH 8.0, 200 mM NaCl, 25 mM L-arginine, 2 mM EDTA, 0.02% azide (in 95% H2O/5% D2O). For protein ligand 1D STD NMR measurements spectra were recorded with 1 mM ligand SSR128129E (100 mM DMSO stock solution) and […] protein with weak 2s RF irradiation on separated protein methyl resonances. Water suppression was carried out using the standard Bruker WATERGATE 3-9-19 sequence. NMR data were processed using the Bruker program xwin NMR software.
Since SSR was a multi-FGFR inhibitor, we used polypeptide fragments of the various (human) FGFR subtypes. […] We then used ECD fragments of FGFRs to map the binding site of SSR to one of the three Ig-domains. […] In fact, FGFR1^∂3 and FGFR1^∂123 give identical signals (broad line) meaning that we obtained same affinity for these proteins while FGFR1^∂12 and FGFR1^∂2 cause sharp lines (FIG. 11B).

Turning to `COc1c(C)c(C(=O)c2ccc(N)c(C(=O)[O-])c2)n2ccccc12.[Na+]` [SSR], in the test with HUVEC, the “FGF2-induced HUVEC proliferation” value was “able to inhibit FGF2-induced HUVEC proliferation”. Moreover, in the test with FGFR2, the “FGF-induced FRS2 phosphorylation” value is on record as “only inhibits FRS2 pathway” and the “FGF-induced PLCγ phosphorylation” value is “doesn't inhibit”. For the same compound, in the test on PANC02 cells, the “FGF7-induced PANC02 migration” value is “blocked”. The “binding to FGFR1 domain D3 fragment” value at FGFR1^∂3 is given as “identified a binding site for SSR”.

The values are drawn from patent US9234025B2, “Extracellular allosteric inhibitor binding domain from a tyrosine kinase receptor” (SANOFI, priority 2009, dated 2016).
